Laboratory results from patent US20210145802A1, “THERAPY FOR OPHTHALMOLOGICAL CONDITIONS” (WREN THERAPEUTICS LIMITED, priority 2018, published 2021).

molecular target: T1, Aβ42 (Homo sapiens, UniProt P05067); assay: ThT kinetic assay of Aβ42 fibril formation (unseeded); type: biochemical; details: 2 μM Aβ42; 5× drug:protein concentration
T1 construct: […]; made in house; host or cells: E. coli BL21 Gold (DE3)
Description: The recombinant Aβ(M1-42) peptide ([…]-SNKGAIIGLMVGGVVIA [SEQ ID NO: 1]), here called Aβ42, was expressed in the E. coli BL21 Gold (DE3) strain (Stratagene, CA, U.S.A.) and purified as described previously with slight modifications. Briefly, the purification procedure involved sonication of E. coli cells, dissolution of inclusion bodies in 8 M urea, and ion exchange in batch mode on diethylaminoethyl cellulose resin and lyophylization. The lyophilized fractions were further purified using Superdex 75 HR 26/60 column (GE Healthcare, Buckinghamshire, U.K.) and eluates were analyzed using SDS-PAGE for the presence of the desired protein product. The fractions containing the recombinant protein were combined, frozen using liquid nitrogen, and lyophilized again.
Except for Netoglitazone, which was custom synthesised by GVK BIO, all small molecules were purchased with a purity greater than 99%. Small molecules were first solubilized in 100% DMSO to a concentration of 5 mM, and then diluted in the peptide solution to reach a final DMSO concentration of maximum 1-3%. We verified that the addition of DMSO in the reaction mixture has no effect on Aβ42 aggregation.
Solutions of monomeric peptides were prepared by dissolving the lyophilized Aβ42 peptide in 6 M GuHCl. Monomeric forms were purified from potential oligomeric species and salt using a Superdex 75 10/300 GL column (GE Healthcare) at a flowrate of 0.5 mL/min, and were eluted in 20 mM sodium phosphate buffer, pH 8 supplemented with 200 μM EDTA and 0.02% NaN3. The centre of the peak was collected, and the peptide concentration was determined from the absorbance of the integrated peak area using ε280=1490 L mol^−1 cm^−1. The obtained monomer was diluted with buffer to the desired concentration and supplemented with 20 μM Thioflavin T (ThT) from a 1 mM stock. All samples were prepared in low binding Eppendorf tubes on ice using careful pipetting to avoid introduction of air bubbles. Each sample was then pipetted into multiple wells of a 96-well half-area, low-binding, clear bottom and PEG coating plate (Corning 3881), 80 μL per well. Aβ42 kinetics have been performed in the absence or the presence of Netoglitazone, Mitoglitazone, Rosiglotazone, Rivoglitazone, Pioglitazone, Ciglitazone, Englitazone, Darglitazone, Troglitazone and B alaglitazone.

T1 sequence (P05067 671-713): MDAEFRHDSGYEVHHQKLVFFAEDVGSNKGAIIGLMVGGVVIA

| SMILES | delay of Aβ42 aggregation |
| --- | --- |
| COc1ccc2nc(COc3ccc(CC4SC(=O)NC4=O)cc3)n(C)c2c1 (stereo not shown) [Rivoglitazone] | little to no delay |
| CCc1ccc(C(=O)COc2ccc(CC3SC(=O)NC3=O)cc2)nc1 (stereo not shown) [Mitoglitazone] | little to no delay |
| Cn1c(COc2ccc(CC3SC(=O)NC3=O)cc2)nc2ccccc2c1=O (stereo not shown) [Balaglitazone] | little to no delay |
| Cc1oc(-c2ccccc2)nc1CCC(=O)c1ccc(CC2SC(=O)NC2=O)cc1 (stereo not shown) [Darglitazone] | observed to delay |
